Results on 36 compounds are retold here after paper PMC8510097 (Molecules, 2021).

The structures appear in SMILES notation. Like-named read-outs stand apart in the source and are kept apart here.

As a reminder, the IC50 is the concentration at which inhibition is half-maximal. As usually defined, the EC50 is the concentration that produces a half-maximal response.

Assay [1] concerns the target T1, SARS-CoV-2 3CLpro (Severe acute respiratory syndrome coronavirus 2, UniProt P0DTD1). The assay can be described thus: SARS-CoV-2 3CLpro inhibition assay, continuous fluorescence with FRET substrate UIVT3. Type of assay: biochemical.
Assay [2] addresses T1, SARS-CoV-2 3CLpro. The assay can be described thus: Mass analysis of enzyme-inhibitor complex (LC-MS). To be noted: 2 μM protein, 20 μM compound, ten minutes. As for the experimental part: The enzyme inhibitory activity (IC50 values) of synthetic active esters was assessed using a continuous fluorescence assay and the FRET-based substrate UIVT3 (HiLyteFluor488^TM-[…] -QXL520-NH2 (HPLC > 90%); Anaspec, Fremont, CA, USA) described by us previously. The antiviral activity (EC50 value) of compounds was evaluated using quantitative VeroE6 cell-based assay with RNA-qPCR as described by us recently. […] We presume that the mode of inhibition involves covalent bond formation with catalytic Cys145 as observed in our previous X-ray structural analysis of inhibitor-bound SARS-CoV-2 3CL protease as well as mass spectral analysis. The irreversible enzyme acylation of the NSAIDs-based inhibitor was examined by using […]. Authentic SARS-CoV-2 3CLpro was incubated with inhibitor 8a and then analyzed with untreated enzyme. As expected, we were able to see a signal for enzyme-bound compound 8a on the LC–MS spectrum that corresponds to acylation of 3CL protease with a mass shift of +212 Daltons.
Purified SARS-CoV-2 3CLpro was injected onto a Superdex™ 200 Increase 10/300 GL gel filtration column (GE Healthcare) equilibrated in 20 mM HEPES pH 7.5. […]
Positive ion spectra obtained were analyzed using Agilent MassHunter Qualitative Analysis Software B.06 and the deconvolution spectra were generated using Agilent MassHunter BioConfirm software B.06.

Assay [3] has as its system SARS-CoV-2 strain JPN/TY/WK-521. The assay can be described thus: Antiviral assay, quantitative VeroE6 cell-based assay with RNA-qPCR.
Another assay deals with SARS-CoV 3CL protease. To be noted: Figure 1; read-out: IC50 (SARS-CoV 3C); cited from earlier work.
The next assay has as its system SARS-CoV. To be noted: cited from earlier work.
The test system of a further assay is SARS-CoV-2. The assay can be described thus: Antiviral CPE protection assay in VeroE6 cells in the presence of P-glycoprotein inhibitor CP-100356 (CellTiter-Glo). Type of assay: cell-based. To be noted: 2µM CP-100356, MOI 0.01, 72 hours.
The subject of the next assay is SARS-CoV-2^wk-521. Further details: method as in PMID 32820005, PMID 33510133. To be noted: VeroE6 cells; cited from earlier work.
Assay [4] deals with SARS-CoV-2 strain JPN/TY/WK-521. Details: method as in PMID 32820005, PMID 33510133. To be noted: VeroE6 cells; read-out: antiviral EC50; cited from earlier work.
The mark [5] stands for this setting: 10 min pre-incubation of enzyme with compound, read-out: SARS CoV-2 3CLpro IC50.
Where [6] appears, read: values given in nM, read-out: SARS-CoV-2 3CLpro enzyme IC50.
The mark [7] stands for this setting: Severe acute respiratory syndrome coronavirus 2, Vero C1008, 72 h, VeroE6 cells, RNA-qPCR, MOI 0.05, 72 h, read-out: SARS-CoV-2 EC50.
The mark [8] stands for this setting: VeroE6 cells, RNA-qPCR, MOI 0.05, 72 h, read-out: SARS-CoV-2 EC50.

With `CC(=O)Oc1ccccc1C(=O)Oc1cncc(Cl)c1` [C00001], the concentration for half-maximal inhibition (IC50) at SARS-CoV-2 3CLpro [1] (setting [5]) came out at 360 nM. Consider `COc1ccc2cc([C@H](C)C(=O)Oc3cncc(Cl)c3)ccc2c1` [Compound 8a, 5-chloropyridin-3-yl (S)-2-(6-methoxynaphthalen-2-yl)propanoate], for which the IC50 on SARS-CoV-2 3CLpro [1] (setting [6]) worked out at 670 nM. Also, at SARS-CoV-2 3CLpro [2], the “mass shift of 3CL protease on acylation by inhibitor” value is recorded as “+212 Daltons”.

For `CC(C)Cc1ccc(C(C)C(=O)Oc2cncc(Cl)c2)cc1` (stereo not shown) [Compound 10a, 5-chloropyridin-3-yl 2-(4-isobutylphenyl)propanoate], the half-inhibitory concentration (IC50) on SARS-CoV-2 3CLpro [1] (setting [6]) was found to be 810 nM.

As to `Cc1cccc(O)c1C(=O)Oc1cncc(Cl)c1` [C00015], the concentration for half-maximal inhibition (IC50) on SARS-CoV-2 3CLpro [1] (setting [5]) turned out to be 4260 nM. For the same compound, the EC50 in assay [3] (setting [7]) is over 100 µM.

Turning to `COc1ccc2c(c1)c(CC(=O)Oc1cncc(Cl)c1)c(C)n2C(=O)c1ccc(Cl)cc1` [C00005], at SARS-CoV-2 3CLpro [1] (setting [5]), the IC50 worked out at 5320 nM. Further, in assay [3] (setting [8]), the EC50 stood at 30.2 µM. Consider `O=C(Oc1cncc(Cl)c1)c1cccs1` [Compound 2], for which the half-inhibitory concentration (IC50) in the assay on SARS-CoV 3CL protease is 0.5 µM. The “antiviral activity (in words)” value in the assay on SARS-CoV was “did not show antiviral activity”. Regarding `Cc1ccc(O)c(C(=O)Oc2cncc(Cl)c2)c1` [C00012], the IC50 on SARS-CoV-2 3CLpro [1] (setting [5]) came to 390 nM. Besides, in assay [3] (setting [8]), the EC50 was found to be 46.3 µM.

Turning to `Cc1ccc(O)c(C(=O)Oc2cncc(Cl)c2)c1` [Compound 15a, 5-chloropyridin-3-yl 2-hydroxy-5-methylbenzoate], the “antiviral activity in the presence of P-glycoprotein inhibitor CP-100356” value with SARS-CoV-2 is given as “none of these compounds exhibited any significant antiviral activity”. Besides, the EC50 in assay [3] (setting [7]) lay within 24 to 64 µM. Consider `O=C(Oc1cncc(Cl)c1)c1ccccc1O` [Compound 12a, 5-chloropyridin-3-yl 2-hydroxybenzoate], for which the IC50 on SARS-CoV-2 3CLpro [1] (setting [5]) came to 3470 nM. `COc1ccc2cc([C@H](C)C(=O)Oc3cncc(Cl)c3)ccc2c1` [C00002]: the IC50 at SARS-CoV-2 3CLpro [1] (setting [5]) worked out at 670 nM. The concentration giving a half-maximal response (EC50) in assay [3] (setting [7]) was over 100 µM. With `Cc1cccc(C(=O)Oc2cncc(Cl)c2)c1O` [Compound 13a, 5-chloropyridin-3-yl 2-hydroxy-3-methylbenzoate], the 50% inhibitory concentration (IC50) at SARS-CoV-2 3CLpro [1] (setting [6]) came to 650 nM. Take `O=C(Oc1ccccc1C(=O)Oc1cncc(Cl)c1)c1ccccc1O` [Compound 12b, 5-chloropyridin-3-yl 2-((2-hydroxybenzoyl)oxy)benzoate]: the “fold reduction in enzyme activity versus monoester 12a” value on SARS-CoV-2 3CLpro [1] is 5 fold. Also, in assay [3] (setting [7]), the EC50 amounted to 64 µM.

For the compound `COc1ccc2cc([C@@H](C)C(=O)Oc3cncc(Cl)c3)ccc2c1` [Compound 9a, 5-chloropyridin-3-yl (R)-2-(6-methoxynaphthalen-2-yl)propanoate], the “antiviral activity in the presence of P-glycoprotein inhibitor CP-100356” value in the assay with SARS-CoV-2 is “none of these compounds exhibited any significant antiviral activity”. Further, on SARS-CoV-2 3CLpro [1], the “fold improvement of enzyme IC50 over the (S)-naproxen ester 8a” value is listed as “over 4 fold”. For the same compound, the IC50 on SARS-CoV-2 3CLpro [1] (setting [6]) is 160 nM.

With `O=C(On1nnc2ccccc21)c1ccc2[nH]ccc2c1` [Compound 1], the IC50 with SARS-CoV 3CL protease is 0.2 µM. For the same compound, the “antiviral activity (in words)” value in the assay on SARS-CoV is listed as “did not show antiviral activity”.

Consider `Cc1cccc(C(=O)Oc2c(C)cccc2C(=O)Oc2cncc(Cl)c2)c1O` [Compound 13b, 5-chloropyridin-3-yl 2-((2-hydroxy-3-methylbenzoyl)oxy)-3-methylbenzoate], for which the IC50 at SARS-CoV-2 3CLpro [1] (setting [5]) stood at 4900 nM. Also, in assay [3] (setting [7]), the EC50 was 24 µM. Take `Cc1ccc(C(=O)Oc2cncc(Cl)c2)c(O)c1` [Compound 14a, 5-chloropyridin-3-yl 2-hydroxy-4-methylbenzoate]: the “antiviral activity in the presence of P-glycoprotein inhibitor CP-100356” value in the assay with SARS-CoV-2 is given as “none of these compounds exhibited any significant antiviral activity”. Consider `CC(=O)Nc1cc(C(=O)Oc2cncc(Cl)c2)ccc1F` [C00019], for which the IC50 at SARS-CoV-2 3CLpro [1] (setting [5]) worked out at 1510 nM. In addition, the EC50 in assay [3] (setting [7]) was over 100 µM. On to `CC(=O)Nc1cccc(C(=O)Oc2cncc(Cl)c2)c1` [C00018], for which the concentration for half-maximal inhibition (IC50) at SARS-CoV-2 3CLpro [1] (setting [5]) came to 1110 nM. For the same compound, in assay [3] (setting [7]), the 50% effective concentration (EC50) was over 100 µM.

Consider `Cc1ccc(C(=O)Oc2cc(C)ccc2C(=O)Oc2cncc(Cl)c2)c(O)c1` [C00011], for which the IC50 at SARS-CoV-2 3CLpro [1] (setting [5]) turned out to be 1400 nM. Further, in assay [3] (setting [7]), the 50% effective concentration (EC50) is over 100 µM. For the compound `Cc1cccc(O)c1C(=O)Oc1cccc(C)c1C(=O)Oc1cncc(Cl)c1` [C00016], at SARS-CoV-2 3CLpro [1] (setting [5]), the IC50 was 15400 nM. Further, the EC50 in assay [3] (setting [7]) is over 100 µM. `O=C(Oc1ccccc1C(=O)Oc1cncc(Cl)c1)c1ccccc1O` [C00007]: the IC50 on SARS-CoV-2 3CLpro [1] (setting [5]) was determined as 17100 nM. The half-maximal effective concentration (EC50) in assay [3] (setting [8]) is 63.7 µM. With `CC(C)Cc1ccc(C(C)C(=O)Oc2cncc(Cl)c2)cc1` (stereo not shown) [C00004], on SARS-CoV-2 3CLpro [1] (setting [5]), the IC50 came out at 810 nM. Moreover, in assay [3] (setting [7]), the EC50 was over 100 µM. Turning to `CC(=O)Nc1cc(C(=O)Oc2cncc(Cl)c2)ccc1F` [Compound 19a, 5-chloropyridin-3-yl 3-acetamido-4-fluorobenzoate], the “enzyme inhibitory activity (in words)” value at SARS-CoV-2 3CLpro [1] was “low micromolar range”. In the case of `Cc1cccc(C(=O)Oc2c(C)cccc2C(=O)Oc2cncc(Cl)c2)c1O` [C00009], the half-maximal inhibitory concentration (IC50) at SARS-CoV-2 3CLpro [1] (setting [5]) was found to be 4900 nM. Moreover, in assay [3] (setting [8]), the half-maximal effective concentration (EC50) was found to be 23.8 µM. Turning to `CC(=O)Nc1cccc(C(=O)Oc2cncc(Cl)c2)c1` [Compound 18a, 5-chloropyridin-3-yl 3-acetamidobenzoate], the “enzyme inhibitory activity (in words)” value on SARS-CoV-2 3CLpro [1] is reported as “low micromolar range”. For the compound `CCC(CC)COC(=O)[C@H](C)N[P@](=O)(OC[C@H]1O[C@@](C#N)(c2ccc3c(N)ncnn23)[C@H](O)[C@@H]1O)Oc1ccccc1` [Compound 5, remdesivir, reference compound], the EC50 in assay [3] (Severe acute respiratory syndrome coronavirus 2, Vero C1008, read-out: antiviral EC50 (table footnote a, reference compounds), VeroE6 cells) was determined as 2.4 µM.

Take `Cc1ccc(O)c(C(=O)Oc2ccc(C)cc2C(=O)Oc2cncc(Cl)c2)c1` [C00013]: on SARS-CoV-2 3CLpro [1] (setting [5]), the IC50 was 740 nM. In addition, the EC50 in assay [3] (setting [8]) turned out to be 48.3 µM. On to `COc1ccc2c(c1)c(CC(=O)Oc1cncc(Cl)c1)c(C)n2C(=O)c1ccc(Cl)cc1` [Compound 11a, 5-chloropyridin-3-yl 2-(1-(4-chlorobenzoyl)-5-methoxy-2-methyl-1H-indol-3-yl)acetate], for which, in the assay on SARS-CoV-2, the “antiviral activity in the presence of P-glycoprotein inhibitor CP-100356” value is recorded as “none of these compounds exhibited any significant antiviral activity”. The “enzyme inhibitory activity (in words)” value at SARS-CoV-2 3CLpro [1] is given as “significant reduction in enzyme activity”. Moreover, the concentration for a half-maximal effect (EC50) in assay [3] (Severe acute respiratory syndrome coronavirus 2, Vero C1008, 72 h, read-out: SARS-CoV-2 EC50, VeroE6 cells, RNA-qPCR, MOI 0.05, 72 h) stood at 30 µM. `Cc1ccc(C(=O)Oc2cncc(Cl)c2)c(O)c1` [C00010]: at SARS-CoV-2 3CLpro [1] (setting [5]), the IC50 was 540 nM. In assay [3] (setting [7]), the EC50 is over 100 µM. Consider `O=C(Oc1cncc(Cl)c1)c1ccccc1O` [C00006], for which the 50% effective concentration (EC50) in assay [3] (setting [7]) is over 100 µM. In the case of `O=C(Oc1cncc(Cl)c1)c1cccc2c1CCN2` [Compound 4], in the assay with SARS-CoV-2^wk-521, the “activity in immunocytochemistry assay (in words)” value is “potent enzyme inhibitory and antiviral activity”. Besides, the EC50 in assay [4] is 15 µM. Regarding `Cc1ccc(O)c(C(=O)Oc2ccc(C)cc2C(=O)Oc2ccc(C)cc2C(=O)Oc2cncc(Cl)c2)c1` [C00014], at SARS-CoV-2 3CLpro [1] (setting [5]), the IC50 is 3730 nM. In assay [3] (setting [7]), the 50% effective concentration (EC50) is over 100 µM. On to `O=C(Oc1cncc(Cl)c1)c1c(O)cccc1F` [C00017], for which the IC50 on SARS-CoV-2 3CLpro [1] (setting [5]) came to 108000 nM. The concentration giving a half-maximal response (EC50) in assay [3] (setting [7]) is over 100 µM.

For the compound `O=C(Oc1cncc(Cl)c1)c1cccc2[nH]ccc12` [Compound 3], the “activity in immunocytochemistry assay (in words)” value in the assay with SARS-CoV-2^wk-521 is “blocked the infectivity and cytopathic effect”. With `COc1ccc2cc([C@@H](C)C(=O)Oc3cncc(Cl)c3)ccc2c1` [C00003], the IC50 on SARS-CoV-2 3CLpro [1] (setting [5]) is 160 nM. Also, the concentration for a half-maximal effect (EC50) in assay [3] (setting [7]) was over 100 µM.

On to `Cc1cccc(C(=O)Oc2cncc(Cl)c2)c1O` [C00008], for which the IC50 on SARS-CoV-2 3CLpro [1] (setting [5]) is 650 nM. Moreover, the EC50 in assay [3] (setting [7]) was over 100 µM.
